For two compounds, Ki, inhibition and Activity results are on record in ChEMBL document CHEMBL4402608 (J Med Chem, 2020).

As a reminder, the Ki is a dissociation constant, usually derived from enzyme kinetics or from competition with a known ligand. Usually inhibition stands for the relative decrease from the control value, in per cent.

Series [1] is described as follows: Displacement of [3H]-PK11195 from rat brain GABA PBR measured after 90 mins by microbeta scintillation counting method. On the technique in general: In a radioligand displacement assay an active substance lowers the binding of a labelled ligand.
A further series relates to GABA(A)/BzR site. The experiment in a line: Displacement of [3H]-Flunitrazepam from rat brain GABA(A)/BzR site at 10 uM measured after 90 mins by microbeta scintillation counting method relative to control. As to conditions: probe [3H]-Flunitrazepam; call rule not given here.
Series [2] has as its target Atypical chemokine receptor 3 (Homo sapiens, UniProt P25106). The experiment in a line: Agonist activity at human PK1-tgged CXCR7 expressed in CHOK1 cells assessed as induction of beta-arrestin recruitment at 10 uM measured after 90 mins by beta-galactosidase based PathHunter assay. It is filed as cell-based. For orientation: Recruitment of arrestin is a read-out of receptor activation apart from second messengers.

For series [3], the target named is T1, D(2) dopamine receptor (Homo sapiens, UniProt P14416). The experiment in a line: Agonist activity at human D2RS expressed in CHOK1/human U2OS cells assessed as induction of beta-arrestin recruitment at 10 uM measured after 90 mins by beta-galactosidase based PathHunter assay. It is filed as cell-based.
The target in series [4] is T1, D(2) dopamine receptor. Nature of the series: Agonist activity at human D2RL expressed in CHOK1/human U2OS cells assessed as induction of beta-arrestin recruitment at 10 uM measured after 90 mins by beta-galactosidase based PathHunter assay. The series is classed as cell-based.
The target in series [5] is T2, D(4) dopamine receptor (Homo sapiens, UniProt P21917). Nature of the series: Displacement of [3H]-N-methylspiperone from recombinant human D4 receptor stably expressed in HEK cell membranes measured after 90 mins by microbeta scintillation counting method.
The target in a further series is Histamine H1 receptor (Homo sapiens, UniProt P35367). The experiment in a line: Displacement of [3H]-pyrilamine from human histamine H1 receptor expressed in stable HEK cell membranes at 10 uM after 90 mins by microbeta scintillation counting method relative to control. As to conditions: probe [3H]-pyrilamine.
The nature of series [6]: Displacement of [3H]-Flunitrazepam from rat brain GABA(A)/BzR site measured after 90 mins by microbeta scintillation counting method.
The target in another series is 5HT2A receptor (Homo sapiens, UniProt P28223). Nature of the series: Displacement of [3H]-Ketanserin from 5HT2A receptor (unknown origin) at 10 uM measured after 90 mins by microbeta scintillation counting method relative to control. To be noted: probe [3H]-Ketanserin.
The target in another series is Histamine H3 receptor (Homo sapiens, UniProt Q9Y5N1). The experiment in a line: Displacement of [3H]-alpha-methylhistamine from recombinant human histamine H3 receptor expressed in HEK Flp-In cell membranes at 10 uM measured after 90 mins by microbeta scintillation counting method relative to control. To be noted: probe [3H]-alpha-methylhistamine.
Series [7] addresses T2, D(4) dopamine receptor. The experiment in a line: Agonist activity at Gi/Go-coupled human D4R expressed in CHOK1 cells assessed as induction of beta-arrestin recruitment at 10 uM measured after 90 mins by beta-galactosidase based PathHunter assay. It is filed as cell-based.
The next series concerns the target Histamine H4 receptor (Homo sapiens, UniProt Q9H3N8).
Series [8] deals with T3, Beta-2 adrenergic receptor (Homo sapiens, UniProt P07550). The experiment in a line: Displacement of [3H]-CGP12177 from recombinant human beta2 adrenergic receptor expressed in HEK Flp-In cell membranes at 10 uM measured after 90 mins by microbeta scintillation counting method relative to control. As to conditions: probe [3H]-CGP12177.
The target of series [9] is Sigma non-opioid intracellular receptor 1 (Homo sapiens, UniProt Q99720). Nature of the series: Displacement of [3H]-pentazocine from sigma1 receptor (unknown origin) after 90 mins by microbeta scintillation counting method.
For series [10], the target named is T3, Beta-2 adrenergic receptor. The experiment in a line: Displacement of [3H]-CGP12177 from recombinant human beta2 adrenergic receptor expressed in HEK Flp-In cell membranes measured after 90 mins by microbeta scintillation counting method.
For series [11], the target named is 5-hydroxytryptamine receptor 6 (Homo sapiens, UniProt P50406).
The target in series [12] is Delta-type opioid receptor (Homo sapiens, UniProt P41143).
Series [13] has as its target 5-hydroxytryptamine receptor 1D (Homo sapiens, UniProt P28221).
Series [14] addresses Muscarinic acetylcholine receptor M1 (Homo sapiens, UniProt P11229).
Series [15] concerns the target T4, Alpha-1A adrenergic receptor (Homo sapiens, UniProt P35348).
T4 sequence (P35348 whole entry): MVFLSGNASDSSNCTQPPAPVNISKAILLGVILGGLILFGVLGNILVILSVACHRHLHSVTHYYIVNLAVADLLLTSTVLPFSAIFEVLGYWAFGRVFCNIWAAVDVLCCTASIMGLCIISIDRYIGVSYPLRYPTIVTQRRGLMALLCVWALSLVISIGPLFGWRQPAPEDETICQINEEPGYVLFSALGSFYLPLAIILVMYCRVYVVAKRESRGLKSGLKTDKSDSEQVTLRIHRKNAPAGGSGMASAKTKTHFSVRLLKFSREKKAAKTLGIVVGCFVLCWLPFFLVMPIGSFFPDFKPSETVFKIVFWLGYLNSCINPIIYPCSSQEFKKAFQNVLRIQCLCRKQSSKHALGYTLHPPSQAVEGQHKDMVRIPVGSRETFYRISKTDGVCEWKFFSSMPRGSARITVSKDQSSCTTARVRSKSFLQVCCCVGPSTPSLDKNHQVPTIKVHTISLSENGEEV

Series [16] has as its target 5-hydroxytryptamine receptor 5A (Homo sapiens, UniProt P47898).
Series [17] addresses T5, Alpha-2C adrenergic receptor (Homo sapiens, UniProt P18825).
T5 sequence (P18825 whole entry): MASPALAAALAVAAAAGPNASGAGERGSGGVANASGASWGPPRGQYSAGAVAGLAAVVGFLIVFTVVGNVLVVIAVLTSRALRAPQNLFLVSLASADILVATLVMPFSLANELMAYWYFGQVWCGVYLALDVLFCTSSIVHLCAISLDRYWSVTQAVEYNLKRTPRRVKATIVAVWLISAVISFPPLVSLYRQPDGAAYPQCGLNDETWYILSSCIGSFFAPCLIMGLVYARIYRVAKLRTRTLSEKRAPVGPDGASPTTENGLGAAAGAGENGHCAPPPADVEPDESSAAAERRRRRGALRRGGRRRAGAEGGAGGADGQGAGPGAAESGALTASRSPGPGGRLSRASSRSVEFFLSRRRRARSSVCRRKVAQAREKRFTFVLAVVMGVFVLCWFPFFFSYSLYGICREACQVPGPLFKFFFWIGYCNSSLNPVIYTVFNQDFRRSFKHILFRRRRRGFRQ

Series [18] addresses 5-hydroxytryptamine receptor 3A (Homo sapiens, UniProt P46098).
The target in series [19] is beta3 adrenergic receptor (Homo sapiens, UniProt P13945).
Series [20] concerns the target 5-hydroxytryptamine receptor 1E (Homo sapiens, UniProt P28566).
A further series deals with D(1B) dopamine receptor (Homo sapiens, UniProt P21918).
Series [21] deals with 5-hydroxytryptamine receptor 1B (Homo sapiens, UniProt P28222).

Structures are written as SMILES.

On to `CCCN(CC[C@]1(O)C[C@H](NC(=O)c2ccc3ccccc3c2)C1)[C@H]1CCc2nc(N)sc2C1`, for which the Ki result in series [1] was “Not Active”; at D(4) dopamine receptor [5] it was 0.045 µM; in series [6], “Not Active”. For the same compound, the inhibition at […], 10 µM in the series with GABA(A)/BzR site was under 50%; on Histamine H1 receptor it was over 50%; on 5HT2A receptor, over 50%; at Histamine H3 receptor, over 50%. In addition, the outcome (in [2]; at D(2) dopamine receptor [3]; on D(2) dopamine receptor [4]; at D(4) dopamine receptor [7]) was Active.
Turning to `CCCN[C@H]1CCc2nc(N)sc2C1` [PRAMIPEXOLE], the Ki at Histamine H4 receptor was over 10 µM; in [9], 4.45 µM; in series [10], over 10 µM; in series [11] it was over 10 µM; in [12] it was over 10 µM; in series [13], over 10 µM. The Ki in series [14] was over 10 µM; in [15], over 10 µM; in series [16] it was over 10 µM; in series [17], 0.0522 µM; in series [18], over 10 µM; in series [19], over 10 µM. The Ki in series [20] is over 10 µM; on D(1B) dopamine receptor it was over 10 µM; in series [21], 3.51 µM. For the same compound, the inhibition at […], 10 µM in [8] is over 50%; at Histamine H1 receptor, under 50%; at 5HT2A receptor it was under 50%; on Histamine H3 receptor, under 50%.
